Experimental data reported in ChEMBL document CHEMBL1201862, “PubChem BioAssay data set” (2004).
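Following 48 hours of exposure in 96-well plates, responses at five concentrations were used to interpolate endpoints linearly. Abbreviation: GI50, concentration required for 50% inhibition of growth.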 Active and inactive are the calls of the source. Rule as the data show it: active = GI50 up to about 1.1 µM and inactive = higher.

Assays:
Test in all cases: NCI tumour cell line growth inhibition, 48 h
[1] = test system: OVCAR-5
[2] = test system: SN12C
[3] = test system: COLO 205
[4] = test system: NCI/ADR-RES
[5] = test system: MDA-MB-231
[6] = test system: M14
[7] = test system: OVCAR-4
[8] = test system: Malme-3M
[9] = test system: BT-549
[10] = test system: SK-MEL-5
[11] = test system: T47D
[12] = test system: PC-3
[13] = test system: UACC-62
[14] = test system: SK-MEL-2
[15] = test system: SF-268
[16] = test system: DU-145
[17] = test system: TK-10
[18] = test system: SK-OV-3
[19] = test system: SW-620
[20] = test system: CAKI-1

Measured: GI50

COc1ccc(/C=C2\C[C@H]3[C@@H]4CCC5=C[C@@H](N6CCCC6)CC[C@]5(C)[C@H]4CC[C@]3(C)[C@H]2O)cc1
inactive: [1] 4.81 µM | [2] 4.8 µM | [3] 1.67 µM | [4] 4.39 µM | [5] 1.96 µM | [6] 1.51 µM | [7] 3.59 µM | [8] 2.61 µM | [9] 5.85 µM | [10] 1.55 µM | [11] 4.56 µM | [12] 2.25 µM | [13] 1.78 µM | [14] 1.88 µM | [15] 2.92 µM | [16] 4.91 µM | [17] 2.43 µM | [18] 5.18 µM | [19] 2.3 µM | [20] 3.52 µM

O=C(/C=C/c1ccco1)c1cccc(C(=O)/C=C/c2ccco2)n1
inactive: [1] 26.1 µM | [2] 12.6 µM | [3] 23.6 µM | [4] 24.2 µM | [5] 40.1 µM | [6] 27.2 µM | [7] > 73.5 µM | [8] 25.7 µM | [9] 13 µM | [10] 48.6 µM | [11] 6.17 µM | [12] 13.2 µM | [13] 27.8 µM | [14] 25.5 µM | [15] 5.24 µM | [16] 24.9 µM | [17] 41.2 µM | [18] 47.8 µM | [19] 3.2 µM | [20] 25 µM

C=CCOC1(CC=C)C(=O)OC2C(O)COC21O (stereo not drawn)
inactive: [1] > 100 µM | [2] > 100 µM | [3] > 100 µM | [4] > 100 µM | [5] > 100 µM | [6] > 100 µM | [7] > 100 µM | [8] > 100 µM | [9] > 100 µM | [10] > 100 µM | [11] > 100 µM | [12] > 100 µM | [13] > 100 µM | [14] > 100 µM | [15] > 100 µM | [16] > 100 µM | [17] > 100 µM | [18] > 100 µM | [19] > 100 µM | [20] > 100 µM

N=c1oc2ccc([N+](=O)[O-])cc2cc1C(=O)NCc1ccccc1
inactive: [1] 32.9 µM | [2] 19.9 µM | [3] 20.6 µM | [4] 16.5 µM | [5] 22 µM | [6] 23.4 µM | [7] 24.6 µM | [8] 13.5 µM | [9] 14 µM | [10] 18.7 µM | [11] 17.9 µM | [12] 19.6 µM | [13] 20.2 µM | [14] 19.3 µM | [15] 22.3 µM | [16] 33 µM | [17] 29.2 µM | [18] 39.2 µM | [19] 20 µM | [20] 19.2 µM

N/C(S)=N/N=C/c1ccc(N)cn1
inactive: [1] 9.06 µM | [2] 3.92 µM | [3] 2.99 µM | [4] 3.08 µM | [5] > 6.79 µM | [6] 2.21 µM | [7] > 10 µM | [8] 4.42 µM | [9] 3.48 µM | [10] 2.25 µM | [11] 6.68 µM | [12] 6.15 µM | [13] 3.19 µM | [14] > 10 µM | [15] 4.29 µM | [16] 2.75 µM | [17] > 10 µM | [18] 9.84 µM | [19] > 10 µM | [20] 3.78 µM

Cc1ccc2[nH]c3c(c2c1)C1CCC(C(C)(C)C)CC1C1C(=O)N(c2ccc4c(c2)OCO4)C(=O)C31 (stereo not drawn)
inactive: [1] 3.61 µM | [2] 2.24 µM | [3] 3.31 µM | [4] 3.1 µM | [5] 2.29 µM | [6] 4.7 µM | [7] 1.85 µM | [8] 2.23 µM | [9] 7.87 µM | [10] 8.15 µM | [11] 2.06 µM | [12] 3.07 µM | [13] 10.8 µM | [14] 7.18 µM | [15] 2.03 µM | [16] 2.99 µM | [17] 2.05 µM | [18] 2.58 µM | [19] 2.63 µM | [20] 2.3 µM

COC(=O)/C=C/c1cc(OC)c2oc(-c3ccc(OC)c(OC)c3)c(C(=O)OC)c2c1
inactive: [1] > 100 µM | [2] > 100 µM | [3] > 100 µM | [4] > 100 µM | [5] > 100 µM | [6] > 100 µM | [7] > 100 µM | [8] > 100 µM | [9] > 100 µM | [10] > 100 µM | [11] > 100 µM | [12] > 100 µM | [13] > 100 µM | [14] > 100 µM | [15] > 100 µM | [16] > 100 µM | [17] > 100 µM | [18] > 100 µM | [19] > 100 µM | [20] > 100 µM

CC[N+]1(C)CCC(O)(/C=C/c2ccccc2)C(C(=O)/C=C/c2ccccc2)C1 (stereo not drawn)
inactive: [1] 18.1 µM | [2] 7.23 µM | [3] 3.44 µM | [4] 30.6 µM | [5] 10.8 µM | [6] 11.3 µM | [7] 13.7 µM | [8] 15 µM | [9] 15.7 µM | [10] 16.6 µM | [11] 15.3 µM | [12] 14.6 µM | [13] 16.9 µM | [14] 19.8 µM | [15] 15.6 µM | [16] 19.1 µM | [17] 7.28 µM | [18] 18.2 µM | [19] 2.45 µM | [20] 1.85 µM

CC1(C)OC([C@H](O)CO)C([C@H]2NCCS2)O1 (stereo partly drawn)
inactive: [1] > 100 µM | [3] > 100 µM | [4] > 100 µM | [5] > 100 µM | [6] > 100 µM | [7] > 100 µM | [8] > 100 µM | [9] > 100 µM | [10] > 100 µM | [11] > 100 µM | [12] > 100 µM | [13] > 100 µM | [14] > 100 µM | [15] > 100 µM | [16] > 100 µM | [17] > 100 µM | [18] > 100 µM | [19] > 100 µM | [20] > 100 µM

Cc1c2ccccc2c(/C=N/NC(=O)CSCC(=O)N/N=C/c2c3ccccc3c(C)c3ccccc23)c2ccccc12
inactive: [1] 38.9 µM | [2] 61.2 µM | [4] > 63.5 µM | [5] 31.2 µM | [6] > 52.5 µM | [7] > 42.1 µM | [8] 37 µM | [9] 40.7 µM | [10] 54.7 µM | [11] > 25.6 µM | [12] > 31.4 µM | [13] > 64.7 µM | [14] > 78.3 µM | [15] 23.8 µM | [16] > 55.8 µM | [17] 29 µM | [18] > 100 µM | [19] > 57.4 µM | [20] > 67.1 µM
